Each structure is given as a SMILES string.

The test concerns the target T1, gastrin (CCK2) receptors (Rattus norvegicus, UniProt P30553).
T1 construct: The stomach was excised and flushed with ca. 1 ml of unbuffered physiological saline solution; from tissue; host or cells: isolated, lumen-perfused stomach of immature rats (33-50 g, ca. 21 days old)
T1 sequence (P30553 1-452): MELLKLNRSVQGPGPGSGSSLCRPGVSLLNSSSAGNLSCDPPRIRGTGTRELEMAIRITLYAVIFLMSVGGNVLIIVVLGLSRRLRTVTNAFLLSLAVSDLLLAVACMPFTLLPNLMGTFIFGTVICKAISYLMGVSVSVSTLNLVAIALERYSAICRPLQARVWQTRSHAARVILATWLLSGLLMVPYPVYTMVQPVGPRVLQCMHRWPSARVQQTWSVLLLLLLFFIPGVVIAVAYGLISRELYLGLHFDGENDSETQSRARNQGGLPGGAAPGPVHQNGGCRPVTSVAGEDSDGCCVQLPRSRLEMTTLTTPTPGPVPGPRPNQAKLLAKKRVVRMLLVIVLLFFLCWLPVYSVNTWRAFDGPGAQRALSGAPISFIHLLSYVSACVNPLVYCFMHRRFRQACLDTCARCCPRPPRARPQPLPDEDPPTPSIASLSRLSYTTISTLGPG
The test is described as follows: immature rat stomach assay, gastrin (CCK2) antagonist activity against pentagastrin-stimulated acid secretion. The following applies: isolated immature rat stomach, 60 min incubation, then cumulative pentagastrin dose-response curves, read-out: Rat Stomach pKB (converted). How it is done: The compounds of the examples were tested for gastrin (CCK2) antagonist activity in an immature rat stomach assay. The procedure was as follows: The oesophagus of immature rats (33–50 g, ca. 21 days old) was ligated at the level of the cardiac sphincter and the duodenal sphincter was cannulated. The stomach was excised and flushed with ca. 1 ml of unbuffered physiological saline solution. The fundus was punctured and cannulated. A further 4–5 ml of unbuffered solution was flushed through the stomach to ensure the preparation was not leaking. The stomach was lowered into a jacketed organ bath containing 40 ml of buffered solution containing 3×10^−8 M 5-methylfurmethide, maintained at 37° and gassed vigorously with 95% O2/5% CO2. The stomach was continuously perfused at a rate of 1 ml min^−1 with unbuffered solution gassed with 100% O2 with the perfusate passing over an internally referenced pH-electrode fixed 12 cm above the stomach. After 120 min of stabilisation the drugs were added directly to the serosal solution in the organ bath and after a further 60 min cumulative pentagastrin dose-response curves were started. Changes in acid secretion were monitored and the curves analysed according to Black et al., Br. J. Pharmacol. 1985, 86, 581.

Take `O=C(O)c1cccc2[nH]c(-c3nc(C4CCCCC4)[nH]c3COC34CC5CC(CC(C5)C3)C4)nc12` [Example 4, 2-[5-(Adamantan-1-yloxymethyl)-2-cyclohexyl-1H-imidazole-4-yl]-1H-benzoimidazole-4-carboxylic acid]: the Kb was 372 nM. The figure for `O=C(O)c1ccc2oc(-c3nc(C4CCCCC4)[nH]c3COC34CC5CC(CC(C5)C3)C4)nc2c1` [Example 1, 2-[5-(Adamantan-1-yloxymethyl)-2-cyclohexyl-1H-imidazole-4-yl]-benzooxazole-5-carboxylic acid] is 3310 nM. The figure for `O=C(O)c1ccc2[nH]c(-c3nc(C4CCCCC4)[nH]c3COC34CC5CC(CC(C5)C3)C4)nc2c1` [Example 3, 2-[5-(Adamantan-1-yloxymethyl)-2-cyclohexyl-1H-imidazole-4-yl]-1H-benzoimidazole-5-carboxylic acid] is 3390 nM; for `O=C(O)Cc1ccc2oc(-c3nc(C4CCCCC4)[nH]c3COC34CC5CC(CC(C5)C3)C4)nc2c1` [Example 5, {2-[5-(Adamantan-1-yloxymethyl)-2-cyclohexyl-1H-imidazole-4-yl]-benzooxazol-5-yl}-acetic acid] it is 2040 nM; for `O=C(O)c1ccc2nc(-c3nc(C4CCCCC4)[nH]c3COC34CC5CC(CC(C5)C3)C4)oc2c1` [Example 2, 2-[5-(Adamantan-1-yloxymethyl)-2-cyclohexyl-1H-imidazole-4-yl]-benzooxazole-6-carboxylic acid] it is 1620 nM.
